ChEMBL document CHEMBL4196010, “New hydrazides derivatives of isoniazid against Mycobacterium tuberculosis: Higher potency and lower hepatocytotoxicity” (Eur J Med Chem, 2018)
In brackets after ≈: the same amount, converted by molar mass.

Columns and labels:
J774.A1 [1] = assay: Cytotoxicity against mouse J774A.1 cells assessed as decrease in cell viability at 100 nM after 20 hrs by resazurin dye-based fluorimetric method; settings: j774.a1, 20 h, 0.1 µM
Salmonella typhimurium [2] = assay: Genotoxicity in Salmonella typhimurium TA98 assessed as increase in revertant colonies at 5 uM preincubated for 20 mins followed by addition of top agar and minimal agar and measured after 72 hrs in absence of S9 metabolic activation system by Ames test relative to control; type: toxicity, organism-based; settings: salmonella enterica subsp. enterica serovar typhimurium
[3] = Cytotoxicity against human HepG2 cells after 3 hrs by WST-1 assay; type: cell-based; settings: read-out: LC50
Salmonella typhimurium [4] = assay: Genotoxicity in Salmonella typhimurium TA100 assessed as increase in revertant colonies at 50 uM preincubated for 20 mins followed by addition of top agar and minimal agar and measured after 72 hrs in presence of S9 metabolic activation system by Ames test relative to control; type: toxicity, organism-based; settings: salmonella enterica subsp. enterica serovar typhimurium
Salmonella typhimurium [5] = assay: Genotoxicity in Salmonella typhimurium TA100 assessed as increase in revertant colonies at 500 uM preincubated for 20 mins followed by addition of top agar and minimal agar and measured after 72 hrs in presence of S9 metabolic activation system by Ames test relative to control; type: toxicity, organism-based; settings: salmonella enterica subsp. enterica serovar typhimurium
Salmonella typhimurium [6] = assay: Genotoxicity in Salmonella typhimurium TA100 assessed as increase in revertant colonies at 5000 uM preincubated for 20 mins followed by addition of top agar and minimal agar and measured after 72 hrs in absence of S9 metabolic activation system by Ames test relative to control; type: toxicity, organism-based; settings: salmonella enterica subsp. enterica serovar typhimurium
Salmonella typhimurium [7] = assay: Genotoxicity in Salmonella typhimurium TA98 assessed as increase in revertant colonies at 0.5 uM preincubated for 20 mins followed by addition of top agar and minimal agar and measured after 72 hrs in presence of S9 metabolic activation system by Ames test relative to control; type: toxicity, organism-based; settings: salmonella enterica subsp. enterica serovar typhimurium
J774.A1 [8] = assay: Cytotoxicity against mouse J774A.1 cells assessed as decrease in cell viability at 1 uM after 20 hrs by resazurin dye-based fluorimetric method; settings: j774.a1, 20 h
Salmonella typhimurium [9] = assay: Genotoxicity in Salmonella typhimurium TA98 assessed as increase in revertant colonies at 5000 uM preincubated for 20 mins followed by addition of top agar and minimal agar and measured after 72 hrs in presence of S9 metabolic activation system by Ames test relative to control; type: toxicity, organism-based; settings: salmonella enterica subsp. enterica serovar typhimurium
J774.A1 [10] = assay: Cytotoxicity against mouse J774A.1 cells assessed as decrease in cell viability at 10 uM after 20 hrs by resazurin dye-based fluorimetric method; settings: j774.a1, 20 h
Salmonella typhimurium [11] = assay: Genotoxicity in Salmonella typhimurium TA98 assessed as increase in revertant colonies at 500 uM preincubated for 20 mins followed by addition of top agar and minimal agar and measured after 72 hrs in presence of S9 metabolic activation system by Ames test relative to control; type: toxicity, organism-based; settings: salmonella enterica subsp. enterica serovar typhimurium
Salmonella typhimurium [12] = assay: Genotoxicity in Salmonella typhimurium TA100 assessed as increase in revertant colonies at 0.5 uM preincubated for 20 mins followed by addition of top agar and minimal agar and measured after 72 hrs in presence of S9 metabolic activation system by Ames test relative to control; type: toxicity, organism-based; settings: salmonella enterica subsp. enterica serovar typhimurium
Salmonella typhimurium [13] = assay: Genotoxicity in Salmonella typhimurium TA98 assessed as increase in revertant colonies at 500 uM preincubated for 20 mins followed by addition of top agar and minimal agar and measured after 72 hrs in absence of S9 metabolic activation system by Ames test relative to control; type: toxicity, organism-based; settings: salmonella enterica subsp. enterica serovar typhimurium
Salmonella typhimurium [14] = assay: Genotoxicity in Salmonella typhimurium TA100 assessed as increase in revertant colonies at 50 uM preincubated for 20 mins followed by addition of top agar and minimal agar and measured after 72 hrs in absence of S9 metabolic activation system by Ames test relative to control; type: toxicity, organism-based; settings: salmonella enterica subsp. enterica serovar typhimurium
Salmonella typhimurium [15] = assay: Genotoxicity in Salmonella typhimurium TA98 assessed as increase in revertant colonies at 5000 uM preincubated for 20 mins followed by addition of top agar and minimal agar and measured after 72 hrs in absence of S9 metabolic activation system by Ames test relative to control; type: toxicity, organism-based; settings: salmonella enterica subsp. enterica serovar typhimurium
J774.A1 [16] = assay: Cytotoxicity against mouse J774A.1 cells assessed as decrease in cell viability at 10 nM after 20 hrs by resazurin dye-based fluorimetric method; settings: j774.a1, 20 h, 0.01 µM
[17] = system: Mycobacterium tuberculosis; assay: Potency index, ratio of ethambutol MIC to compound MIC for antitubercular activity against Mycobacterium tuberculosis H37Rv ATCC 27294; type: functional
[18] = Selectivity index, ratio of LC50 for human HepG2 cells to MIC for Mycobacterium tuberculosis H37Rv ATCC 27294; type: toxicity; settings: read-out: Selectivity Index
Salmonella typhimurium [19] = assay: Genotoxicity in Salmonella typhimurium TA98 assessed as increase in revertant colonies at 5 uM preincubated for 20 mins followed by addition of top agar and minimal agar and measured after 72 hrs in presence of S9 metabolic activation system by Ames test relative to control; type: toxicity, organism-based; settings: salmonella enterica subsp. enterica serovar typhimurium
Salmonella typhimurium [20] = assay: Genotoxicity in Salmonella typhimurium TA98 assessed as increase in revertant colonies at 50 uM preincubated for 20 mins followed by addition of top agar and minimal agar and measured after 72 hrs in absence of S9 metabolic activation system by Ames test relative to control; type: toxicity, organism-based; settings: salmonella enterica subsp. enterica serovar typhimurium
Salmonella typhimurium [21] = assay: Genotoxicity in Salmonella typhimurium TA98 assessed as increase in revertant colonies at 50 uM preincubated for 20 mins followed by addition of top agar and minimal agar and measured after 72 hrs in presence of S9 metabolic activation system by Ames test relative to control; type: toxicity, organism-based; settings: salmonella enterica subsp. enterica serovar typhimurium
[22] = Cytotoxicity against human HepG2 cells after 24 hrs by WST-1 assay; type: cell-based; settings: read-out: LC50
J774.A1 [23] = assay: Cytotoxicity against mouse J774A.1 cells assessed as decrease in cell viability at 100 uM after 20 hrs by resazurin dye-based fluorimetric method; settings: j774.a1, 20 h
Salmonella typhimurium [24] = assay: Genotoxicity in Salmonella typhimurium TA100 assessed as increase in revertant colonies at 0.5 uM preincubated for 20 mins followed by addition of top agar and minimal agar and measured after 72 hrs in absence of S9 metabolic activation system by Ames test relative to control; type: toxicity, organism-based; settings: salmonella enterica subsp. enterica serovar typhimurium
Salmonella typhimurium [25] = assay: Genotoxicity in Salmonella typhimurium TA100 assessed as increase in revertant colonies at 500 uM preincubated for 20 mins followed by addition of top agar and minimal agar and measured after 72 hrs in absence of S9 metabolic activation system by Ames test relative to control; type: toxicity, organism-based; settings: salmonella enterica subsp. enterica serovar typhimurium
Salmonella typhimurium [26] = assay: Genotoxicity in Salmonella typhimurium TA100 assessed as increase in revertant colonies at 5000 uM preincubated for 20 mins followed by addition of top agar and minimal agar and measured after 72 hrs in presence of S9 metabolic activation system by Ames test relative to control; type: toxicity, organism-based; settings: salmonella enterica subsp. enterica serovar typhimurium
Salmonella typhimurium [27] = assay: Genotoxicity in Salmonella typhimurium TA100 assessed as increase in revertant colonies at 5 uM preincubated for 20 mins followed by addition of top agar and minimal agar and measured after 72 hrs in absence of S9 metabolic activation system by Ames test relative to control; type: toxicity, organism-based; settings: salmonella enterica subsp. enterica serovar typhimurium
[28] = system: Mycobacterium tuberculosis; assay: Antitubercular activity against Mycobacterium tuberculosis H37Rv ATCC 27294 after 5 days by microplate alamar blue assay; type: functional; settings: H37Rv ATCC 27294, 120 h
[29] = system: Mycobacterium tuberculosis; assay: Potency index, ratio of pyrazinamide MIC to compound MIC for antitubercular activity against Mycobacterium tuberculosis H37Rv ATCC 27294; type: functional
Salmonella typhimurium [30] = assay: Genotoxicity in Salmonella typhimurium TA98 assessed as increase in revertant colonies at 0.5 uM preincubated for 20 mins followed by addition of top agar and minimal agar and measured after 72 hrs in absence of S9 metabolic activation system by Ames test relative to control; type: toxicity, organism-based; settings: salmonella enterica subsp. enterica serovar typhimurium
Salmonella typhimurium [31] = assay: Genotoxicity in Salmonella typhimurium TA100 assessed as increase in revertant colonies at 5 uM preincubated for 20 mins followed by addition of top agar and minimal agar and measured after 72 hrs in presence of S9 metabolic activation system by Ames test relative to control; type: toxicity, organism-based; settings: salmonella enterica subsp. enterica serovar typhimurium
J774.A1 [32] = assay: Cytotoxicity against mouse J774A.1 cells assessed as decrease in cell viability at 1 nM after 20 hrs by resazurin dye-based fluorimetric method; settings: j774.a1, 20 h, 0.001 µM
[33] = system: Mycobacterium tuberculosis; assay: Antitubercular activity against Mycobacterium tuberculosis; type: functional

With `CC(=O)Nc1ccccc1C(=O)C(=O)NNC(=O)c1ccncc1` the Activity (J774.A1 [1]) was 97.7%, the “fold change (FC)” value (Salmonella typhimurium [2]) was 1.1 and the CC50 at 3 h [3] was over 200 µM. For the same compound, the “fold change (FC)” value (Salmonella typhimurium [4]) was 1.2, the “fold change (FC)” value (Salmonella typhimurium [5]) was 1.2 and the “fold change (FC)” value (Salmonella typhimurium [6]) was 1.4. The “fold change (FC)” value (Salmonella typhimurium [7]) was 1.1, the Activity (J774.A1 [8]) was 99.5% and the “fold change (FC)” value (Salmonella typhimurium [9]) was 2.5. For the same compound, the Activity (J774.A1 [10]) was 97.1%, the “fold change (FC)” value (Salmonella typhimurium [11]) was 2 and the “fold change (FC)” value (Salmonella typhimurium [12]) was 1.1. For the same compound, the “fold change (FC)” value (Salmonella typhimurium [13]) was 1.3, the “fold change (FC)” value (Salmonella typhimurium [14]) was 1.3 and the “fold change (FC)” value (Salmonella typhimurium [15]) was 1.3. For the same compound, the Activity (J774.A1 [16]) was 98.7%, the Ratio [17] was 30 and the selectivity ratio [18] was 67. The “fold change (FC)” value (Salmonella typhimurium [19]) was 1.1, the “fold change (FC)” value (Salmonella typhimurium [20]) was 1.2 and the “fold change (FC)” value (Salmonella typhimurium [21]) was 1.6. For the same compound, the CC50 at 24 h [22] was 31.5 µM, the Activity (J774.A1 [23]) was 93.3% and the “fold change (FC)” value (Salmonella typhimurium [24]) was 1. For the same compound, the “fold change (FC)” value (Salmonella typhimurium [25]) was 1.3, the “fold change (FC)” value (Salmonella typhimurium [26]) was 1.3 and the “fold change (FC)” value (Salmonella typhimurium [27]) was 1.3. For the same compound, the MIC [28] was 0.47 µM (≈ 0.153 µg/mL), the Ratio [29] was 1800 and the “fold change (FC)” value (Salmonella typhimurium [30]) was 1. For the same compound, the “fold change (FC)” value (Salmonella typhimurium [31]) was 1.1 and the Activity (J774.A1 [32]) was 99.6%.
In the case of `CC(=O)Nc1ccc(Cl)cc1C(F)(F)C(=O)NNC(N)=S`, the MIC [33] is reported as 297 µM (≈ 100 µg/mL).
